# Measured values taken from patent publication US20080299140A1, “Immunogenic Composition and Peptide Sequences for Prevention and Treatment of an Hsv Condition” (priority 2002, published 2008).
# Where a chain is given by its changes, count along the chain named. Where two headings read alike, the source gives them in different places.
# Tests used:
# [1] = target: T1, DR1=HLA-DR(α1*0101,α1*0101) (Homo sapiens, UniProt P01903+P01911, A100R/D57E/F55L/F60I/F76Y/I96L/L162R/M171V/P40L/Q125E/R42F/V115G/Y59C); test: biochemical; format: binding; details: […]
# T1 construct: endogenous in cells; host or cells: EBV homozygous human B cell line
# [2] = target: T2, DRB4=HLA-DR(α1*0101,α4*0101) (Homo sapiens, UniProt P01903+P13762, G164S); test: HLA-DR specific binding assay, DRB4 (DR53)
# T2 construct: endogenous in cells
# [3] = target: T3, DR7=HLA-DR(α1*0101,α1*0701) (Homo sapiens, UniProt P01903+P01911, A100R/A102G/A103Q/D57E/D86V/E43K/F76Y/K127E/L162R/M171V/P40G/Q125H/Q99D/R33Q/R42Y/R54Q/S133A/S66F/T210M/V115G/Y107V/Y59L/Y89S); test: HLA-DR specific binding assay, DR7
# T3 construct: endogenous in cells; host or cells: EBV homozygous human B cell line
# [4] = target: T4, DP402 DP (α1*0101, α1*0402) (Homo sapiens, UniProt P04440+P20036, A65V/A84D/A85E/L207M); test: biochemical; format: binding
# T4 sequence (P20036 29-260): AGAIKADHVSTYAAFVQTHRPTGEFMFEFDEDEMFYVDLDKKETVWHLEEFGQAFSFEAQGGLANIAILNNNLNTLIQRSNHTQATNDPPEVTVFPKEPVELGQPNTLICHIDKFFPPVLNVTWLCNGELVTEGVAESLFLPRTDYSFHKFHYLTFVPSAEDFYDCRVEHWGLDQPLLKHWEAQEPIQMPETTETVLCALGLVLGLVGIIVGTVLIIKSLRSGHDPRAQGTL
# T4 sequence (P04440 30-258 A65V/A84D/A85E): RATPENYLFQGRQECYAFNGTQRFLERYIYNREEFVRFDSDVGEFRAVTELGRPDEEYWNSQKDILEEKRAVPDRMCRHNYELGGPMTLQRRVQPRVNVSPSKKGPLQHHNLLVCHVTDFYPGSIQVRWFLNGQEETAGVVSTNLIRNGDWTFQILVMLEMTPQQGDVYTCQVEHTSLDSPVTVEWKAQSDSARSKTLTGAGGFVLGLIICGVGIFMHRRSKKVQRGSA
# [5] = target: T5, DP401=HLA-DP(α1*0101,α1*0401) (Homo sapiens, UniProt P04440+P20036); test: biochemical; format: binding
# T5 sequence (P20036 32-260 limits assumed): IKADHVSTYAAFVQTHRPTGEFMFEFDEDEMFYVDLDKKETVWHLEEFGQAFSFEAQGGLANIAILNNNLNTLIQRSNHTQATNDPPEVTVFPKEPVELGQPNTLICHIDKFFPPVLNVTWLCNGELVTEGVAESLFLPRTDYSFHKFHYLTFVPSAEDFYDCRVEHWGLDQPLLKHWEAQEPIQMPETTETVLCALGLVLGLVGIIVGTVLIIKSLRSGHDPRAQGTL
# T5 sequence (P04440 30-258): T4 sequence (P04440 30-258 A65V/A84D/A85E) with V36A, D55A, E56A
# [6] = target: T6, DRB5=HLA-DR(α1*0101,α5*0101) (Homo sapiens, UniProt P01903+Q30154); test: biochemical; format: binding; details: Table V; […]; read-out: IC50 DRB5
# T6 construct: endogenous in cells; host or cells: EBV homozygous human B cell line
# T6 sequence (Q30154 30-266, other chains not shown): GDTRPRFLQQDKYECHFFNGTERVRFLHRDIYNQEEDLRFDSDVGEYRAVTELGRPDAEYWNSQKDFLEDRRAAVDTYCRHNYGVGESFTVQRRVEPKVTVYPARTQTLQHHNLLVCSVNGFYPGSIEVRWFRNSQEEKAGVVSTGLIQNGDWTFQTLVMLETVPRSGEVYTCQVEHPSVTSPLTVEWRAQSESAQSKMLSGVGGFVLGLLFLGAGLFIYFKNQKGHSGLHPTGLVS
# [7] = target: T7, DRB3=HLA-DR(α1*0101,α3*0101) (Homo sapiens, UniProt P01903+P79483); test: HLA-DR specific binding assay, DRB3 (DR52)
# T7 construct: endogenous in cells; host or cells: STEILIN or 0206AD (both typed DRB3*0101)
# T7 sequence (P79483 30-266, other chains not shown): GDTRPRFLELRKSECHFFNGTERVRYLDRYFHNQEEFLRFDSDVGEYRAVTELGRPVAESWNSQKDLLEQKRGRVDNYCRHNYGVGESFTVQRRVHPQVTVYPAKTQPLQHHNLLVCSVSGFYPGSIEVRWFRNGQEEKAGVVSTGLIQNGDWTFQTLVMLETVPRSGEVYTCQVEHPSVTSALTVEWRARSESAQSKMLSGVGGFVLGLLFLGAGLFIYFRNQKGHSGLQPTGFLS
# [8] = target: T8, DR3=HLA-DR(α1*0101,α1*0301) (Homo sapiens, UniProt P01903+P01911, A100K/A102G/A103R/A169T/F55Y/I96L/K41T/L162R/M171V/P40S/Q125H/Q178H/Q39Y/R42S/S66N/T106N/T262R/W38E/Y61H); test: HLA-DR specific binding assay, DR3
# T8 construct: endogenous in cells; host or cells: STEILIN (EBV homozygous B cell line)
# [9] = target: T9, DR13=HLA-DR(α1*0101,α1*1301) (Homo sapiens, UniProt P01903+P01911, A100E/A169T/K41T/L162R/M171V/P40S/Q125H/Q178H/Q39Y/Q99D/R42S/S66N/T262R/W38E/Y61H); test: HLA-DR specific binding assay, DR13
# T9 construct: endogenous in cells; host or cells: 0206AD (EBV homozygous B cell line)
# [10] = target: T10, DR4=HLA-DR(α1*0101,α1*0401) (Homo sapiens, UniProt P01903+P01911, A100K/A169T/F76Y/I96L/K127E/L162R/M171V/N62H/P40V/Q125Y/R42H/S133A/S149N/S66Y/V115G/V209L/W38E); test: biochemical; format: binding
# T10 construct: endogenous in cells; host or cells: BOLETH (EBV homozygous B cell line)
# [11] = target: T11, DR15=HLA-DR(α1*0101,α1*1501) (Homo sapiens, UniProt P01903+P01911); test: HLA-DR specific binding assay, DR15
# T11 construct: endogenous in cells; host or cells: EBV homozygous human B cell line
# [12] = target: T12, DR11=HLA-DR(α1*0101,α1*1101) (Homo sapiens, UniProt P01903+P01911, A100R/A169T/A87E/I96F/K41T/L162R/M171V/P40S/Q125H/Q178H/Q39Y/Q99D/R42S/S66Y/T262R/V115G/W38E); test: biochemical; format: binding
# T12 construct: endogenous in cells; host or cells: SWEIG (EBV homozygous B cell line)
# [13] = Table V, […], read-out: IC50 DR11
# [14] = Table V, […], read-out: IC50 DR4
Structure (SMILES),"IC50 ([1]; Table V, read-out: IC50 DR1) [nM]",IC50 [2] [nM],IC50 [3] [nM],IC50 ([4]; Class II MHC allele DP402) [nM],"IC50 ([4]; Table V, […]) [nM]","IC50 ([5]; Table V, […]) [nM]",IC50 [6] [nM],"IC50 ([7]; IC50, DRD3, Class II MHC allele DRD3 (so in the source)) [nM]","IC50 ([7]; IC50 DRB3, Table V, […]) [nM]","IC50 ([8]; IC50 DR3, Table V, […]) [nM]",IC50 [9] [nM],IC50 ([10]; IC50 DR4) [nM],IC50 [11] [nM],"IC50 [12, 13] [nM]","IC50 [10, 14] [nM]","IC50 ([1]; Class II MHC allele DR1, read-out: IC50, DR1) [nM]",IC50 ([5]; Class II MHC allele DP401) [nM],"IC50 ([8]; IC50, DR3, Class II MHC allele DR3) [nM]","IC50 ([12]; Class II MHC allele DR11, read-out: IC50, DR11) [nM]"
CC[C@H](C)[C@H](NC(=O)[C@H](Cc1c[nH]cn1)NC(=O)[C@H](Cc1ccc(O)cc1)NC(=O)[C@@H](NC(=O)[C@H](CCCNC(=N)N)NC(=O)[C@H](CCCNC(=N)N)NC(=O)[C@@H](NC(=O)CNC(=O)[C@@H]1CCCN1C(=O)[C@@H]1CCCN1C(=O)[C@H](CC(=O)O)NC(=O)[C@@H](NC(=O)[C@H](CC(C)C)NC(=O)[C@H](CCC(N)=O)NC(=O)[C@H](CC(=O)O)NC(=O)[C@H](CC(C)C)NC(=O)[C@@H](NC(=O)[C@@H]1CCCN1C(=O)[C@H](CC(C)C)NC(=O)[C@@H](N)CC(=O)O)C(C)C)[C@@H](C)O)C(C)C)C(C)C)C(=O)N[C@@H](CCC(N)=O)C(=O)N[C@@H](C)C(=O)NCC(=O)N[C@@H](CC(C)C)C(=O)N1CCC[C@H]1C(=O)N[C@@H](CC(=O)O)C(=O)N1CCC[C@H]1C(=O)N[C@@H](Cc1ccccc1)C(=O)N[C@@H](CCC(N)=O)C(=O)N1CCC[C@H]1C(=O)N1CCC[C@H]1C(=O)N[C@@H](CO)C(=O)O [HSV 31],3,397,224,49000,47000,62000,58,6980,5980,2490,> 100000,63,787,–,–,–,–,–,–
CSCC[C@H](NC(=O)[C@H](CC(=O)O)NC(=O)[C@@H](NC(=O)[C@@H](NC(=O)[C@H](CCCCN)NC(=O)[C@H](C)NC(=O)[C@H](CO)NC(=O)[C@H](CC(C)C)NC(=O)[C@H](CC(C)C)NC(=O)[C@H](C)NC(=O)[C@H](CO)NC(=O)[C@@H](NC(=O)CN)[C@@H](C)O)C(C)C)[C@@H](C)O)C(=O)N[C@H](C(=O)N[C@@H](CCSC)C(=O)N[C@@H](CCCNC(=N)N)C(=O)N[C@@H](CCCCN)C(=O)N[C@@H](CCCNC(=N)N)C(=O)N[C@@H](CCCNC(=N)N)C(=O)N[C@@H](CC(N)=O)C(=O)N[C@H](C(=O)N[C@@H](CC(N)=O)C(=O)N[C@@H](Cc1ccc(O)cc1)C(=O)N[C@H](C(=O)N[C@@H](CCC(N)=O)C(=O)N[C@H](C(=O)N1CCC[C@H]1C(=O)N[C@@H](CC(N)=O)C(=O)N[C@@H](CCCCN)C(=O)N[C@@H](CC(=O)O)C(=O)NCC(=O)N[C@@H](CC(=O)O)C(=O)N[C@@H](C)C(=O)N[C@@H](CC(=O)O)C(=O)O)C(C)C)[C@@H](C)O)[C@@H](C)O)C(C)C [HSV 9],493,16000,229,4000,4000,8000,559,–,58000,11400,362,–,2430,424,4000,–,–,–,–
CSCC[C@H](NC(=O)[C@H](CCCCN)NC(=O)[C@H](CC(C)C)NC(=O)[C@H](CO)NC(=O)[C@H](C)NC(=O)[C@H](CC(=O)O)NC(=O)[C@@H](NC(=O)[C@H](CC(C)C)NC(=O)[C@H](C)NC(=O)[C@H](Cc1ccc(O)cc1)NC(=O)[C@H](CCCCN)NC(=O)[C@@H](N)CO)C(C)C)C(=O)N[C@@H](C)C(=O)N[C@@H](CC(=O)O)C(=O)N1CCC[C@H]1C(=O)N[C@@H](CC(N)=O)C(=O)N[C@@H](CCCNC(=N)N)C(=O)N[C@@H](Cc1ccccc1)C(=O)N[C@@H](CCCNC(=N)N)C(=O)NCC(=O)N[C@@H](CCCCN)C(=O)N[C@@H](CC(=O)O)C(=O)N[C@@H](CC(C)C)C(=O)N1CCC[C@H]1C(=O)N[C@H](C(=O)N[C@@H](CC(C)C)C(=O)N[C@@H](CC(=O)O)C(=O)N[C@@H](CCC(N)=O)C(=O)N[C@@H](CC(C)C)C(=O)O)C(C)C [HSV 30],–,> 100000,374,–,3800,17900,7,–,535,78,> 100000,–,11000,648,58,58,17700,79,–
CC[C@H](C)[C@H](NC(=O)[C@H](CCC(N)=O)NC(=O)[C@@H]1CCCN1C(=O)[C@H](C)N)C(=O)N[C@H](C(=O)N[C@@H](CCCNC(=N)N)C(=O)NCC(=O)N[C@@H](C)C(=O)N[C@@H](CO)C(=O)N[C@@H](CCC(=O)O)C(=O)N[C@@H](CC(=O)O)C(=O)N[C@H](C(=O)N[C@@H](CCCNC(=N)N)C(=O)N[C@@H](CCCCN)C(=O)N[C@@H](CCC(N)=O)C(=O)N1CCC[C@H]1C(=O)N[C@@H](Cc1ccc(O)cc1)C(=O)N[C@@H](CC(N)=O)C(=O)N[C@@H](CC(C)C)C(=O)N[C@H](C(=O)N[C@H](C(=O)N[C@@H](C)C(=O)N[C@@H](Cc1c[nH]c2ccccc12)C(=O)N[C@@H](Cc1ccccc1)C(=O)N[C@@H](CCCNC(=N)N)C(=O)N[C@@H](CCSC)C(=O)NCC(=O)NCC(=O)O)[C@@H](C)CC)[C@@H](C)O)C(C)C)C(C)C [HSV 32],–,–,4,–,381,1450,1,–,> 100000,2350,–,–,–,300,–,–,–,–,300
